Assay results from PubChem BioAssay AID248 (DTP/NCI, 2004).
Inconclusive results and toxic doses are left out. No stated cut-off is given here; in the data, active means T/C of 150% or more; inactive means T/C below 125%.

Tested on: L1210 leukemia ip in BDF1 mice, survival T/C
Assay: NCI In Vivo Anticancer Drug Screen. Data for tumor model L1210 Leukemia (intraperitoneal) in B6D2F1 (BDF1) mice
Conditions: endpoint: mean survival time, higher = longer survival
Procedure, shortened: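 In this screen, tumor-bearing mice given compound are compared to those given vehicle, and their survival values are reported as a treated-to-control quotient.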

[1] = dose: 100.0 mg/kg/injection, schedule: Q04DX003 (ip), vehicle: Klucel (hydroxypropylcellulose) (HPC)
[2] = dose: 200.0 mg/kg/injection, schedule: Q04DX003 (ip), vehicle: Klucel (hydroxypropylcellulose) (HPC)
[3] = dose: 400.0 mg/kg/injection, schedule: Q04DX003 (ip), vehicle: Klucel (hydroxypropylcellulose) (HPC)
[4] = dose: 25.0 mg/kg/injection, schedule: Q04DX002 (ip), vehicle: Klucel (hydroxypropylcellulose) (HPC)
[5] = dose: 50.0 mg/kg/injection, schedule: Q04DX002 (ip), vehicle: Klucel (hydroxypropylcellulose) (HPC)
[6] = dose: 100.0 mg/kg/injection, schedule: Q01DX001 (ip), vehicle: carboxymethylcellulose (CMC)
[7] = dose: 200.0 mg/kg/injection, schedule: Q01DX001 (ip), vehicle: carboxymethylcellulose (CMC)
[8] = dose: 400.0 mg/kg/injection, schedule: Q01DX001 (ip), vehicle: carboxymethylcellulose (CMC)
[9] = dose: 100.0 mg/kg/injection, schedule: Q01DX001 (ip), vehicle: saline
[10] = dose: 200.0 mg/kg/injection, schedule: Q01DX001 (ip), vehicle: saline
[11] = dose: 400.0 mg/kg/injection, schedule: Q01DX001 (ip), vehicle: saline
[12] = dose: 100.0 mg/kg/injection, schedule: Q01DX009 (ip), vehicle: Klucel (hydroxypropylcellulose) (HPC)
[13] = dose: 200.0 mg/kg/injection, schedule: Q01DX009 (ip), vehicle: Klucel (hydroxypropylcellulose) (HPC)
[14] = dose: 400.0 mg/kg/injection, schedule: Q01DX009 (ip), vehicle: Klucel (hydroxypropylcellulose) (HPC)
[15] = dose: 100.0 mg/kg/injection, schedule: Q01DX009 (ip), vehicle: saline with Tween-80

Measured: T/C

O=P(NC12CC3CC(CC(C3)C1)C2)(Oc1ccccc1)Oc1ccccc1
inactive: [1] 101 % of control | [2] 97 % of control | [3] 87 % of control

Cc1ccc2cccc(O)c2n1
inactive: dose: 12.5 mg/kg/injection, schedule: Q04DX002 (ip), vehicle: Klucel (hydroxypropylcellulose) (HPC) 94 % of control | [4] 88 % of control | [5] 102 % of control

c1ccc2c(c1)ccc1c3c([nH]c12)CCCC3
inactive: [6] 88 % of control | [7] 98 % of control | [8] 88 % of control

CC(=O)OCC1OC(OC(C)=O)C(NC(=O)N(C)c2ccccc2)C(OC(C)=O)C1OC(C)=O (stereo not given)
inactive: [1] 105 % of control | [2] 105 % of control | [3] 105 % of control

CC1(C)N=C(N)N=C(N)N1c1ccc(CCNS(=O)(=O)c2cccc(S(=O)(=O)F)c2)cc1
inactive: [9] 96 % of control | [10] 94 % of control | [11] 96 % of control

CCOC(=O)/C(C(=S)NC(=O)c1ccc(Br)cc1)=C(/C)N
inactive: dose: 100.0 mg/kg/injection, schedule: Q04DX003 (ip), vehicle: carboxymethylcellulose (CMC) 95 % of control | dose: 200.0 mg/kg/injection, schedule: Q04DX003 (ip), vehicle: carboxymethylcellulose (CMC) 90 % of control | dose: 400.0 mg/kg/injection, schedule: Q04DX003 (ip), vehicle: carboxymethylcellulose (CMC) 98 % of control

Cc1cccc(Cl)c1NC(=O)Cn1cccc1
inactive: dose: 25.0 mg/kg/injection, schedule: Q01DX009 (ip), vehicle: Klucel (hydroxypropylcellulose) (HPC) 95 % of control | dose: 50.0 mg/kg/injection, schedule: Q01DX009 (ip), vehicle: Klucel (hydroxypropylcellulose) (HPC) 95 % of control | dose: 75.0 mg/kg/injection, schedule: Q01DX009 (ip), vehicle: Klucel (hydroxypropylcellulose) (HPC) 94 % of control | [1] 100 % of control | [2] 93 % of control

COc1ccccc1NP1(=O)OCC(C)([N+](=O)[O-])CO1 (stereo not given)
inactive: [6] 89 % of control | [7] 104 % of control | [8] 93 % of control

CN=NC(C)(C)OC(C)=O
inactive: dose: 12.5 mg/kg/injection, schedule: Q01DX001 (ip), vehicle: saline 97 % of control | dose: 12.5 mg/kg/injection, schedule: Q01DX009 (ip), vehicle: saline 101 % of control | dose: 12.5 mg/kg/injection, schedule: Q04DX003 (ip), vehicle: saline 107 % of control | dose: 25.0 mg/kg/injection, schedule: Q01DX001 (ip), vehicle: saline 96 % of control | dose: 25.0 mg/kg/injection, schedule: Q01DX009 (ip), vehicle: saline 108 % of control | dose: 25.0 mg/kg/injection, schedule: Q04DX003 (ip), vehicle: saline 107 % of control | dose: 50.0 mg/kg/injection, schedule: Q01DX001 (ip), vehicle: saline 107 % of control | dose: 50.0 mg/kg/injection, schedule: Q04DX003 (ip), vehicle: saline 98 % of control

COC1CCCCC1Br (stereo not given)
inactive: [12] 104 % of control | [13] 98 % of control | [14] 98 % of control

CC1(C)CC(=O)c2c(cc(OS(C)(=O)=O)cc2OS(C)(=O)=O)O1
inactive: dose: 3.12 mg/kg/injection, schedule: Q01DX009 (ip), vehicle: Klucel (hydroxypropylcellulose) (HPC) 90 % of control | dose: 6.25 mg/kg/injection, schedule: Q01DX009 (ip), vehicle: Klucel (hydroxypropylcellulose) (HPC) 97 % of control | dose: 12.5 mg/kg/injection, schedule: Q01DX009 (ip), vehicle: Klucel (hydroxypropylcellulose) (HPC) 94 % of control

Oc1ccccc1N=Cc1c(O)ccc2ccccc12
inactive: dose: 100.0 mg/kg/injection, schedule: Q01DX001 (ip), vehicle: other 96 % of control | dose: 200.0 mg/kg/injection, schedule: Q01DX001 (ip), vehicle: other 98 % of control | dose: 400.0 mg/kg/injection, schedule: Q01DX001 (ip), vehicle: other 101 % of control

COc1cccc(CCCCO)c1
inactive: dose: 50.0 mg/kg/injection, schedule: Q01DX009 (ip), vehicle: saline with Tween-80 91 % of control | [15] 91 % of control

CC12C=CC(CC1)C2OC(=O)c1ccccc1C(=O)O (stereo not given)
inactive: [12] 95 % of control | [1] 94 % of control | [13] 97 % of control | [2] 108 % of control | [14] 92 % of control | [3] 92 % of control

C=CC1CN2CCC1CC2C(O)c1ccnc2ccc(OC)cc12 (stereo not given)
inactive: dose: 27.45 mg/kg/injection, schedule: Q01DX Z (ip), vehicle: other 92 % of control | dose: 54.9 mg/kg/injection, schedule: Q01DX Z (ip), vehicle: other 92 % of control | dose: 75.0 mg/kg/injection, schedule: Q01DX009 (ip), vehicle: saline with Tween-80 92 % of control | dose: 109.8 mg/kg/injection, schedule: Q01DX Z (ip), vehicle: other 94 % of control | [10] 101 % of control

O=C(O)c1ccnc(Cl)c1
inactive: dose: 100.0 mg/kg/injection, schedule: Q04DX003 (ip), vehicle: saline with Tween-80 101 % of control | dose: 200.0 mg/kg/injection, schedule: Q04DX003 (ip), vehicle: saline with Tween-80 102 % of control | dose: 400.0 mg/kg/injection, schedule: Q04DX003 (ip), vehicle: saline with Tween-80 101 % of control

CC(=O)N1Cc2cccn2Cc2cc3c(cc21)OCO3
inactive: [4] 97 % of control | [5] 87 % of control | dose: 100.0 mg/kg/injection, schedule: Q04DX002 (ip), vehicle: Klucel (hydroxypropylcellulose) (HPC) 97 % of control

Cc1cc(C)c2ccc(=O)[nH]c2n1
inactive: [9] 92 % of control | [10] 101 % of control | [11] 101 % of control

Cc1cccc(N2C(=O)CSC2=S)c1
inactive: dose: 25.0 mg/kg/injection, schedule: Q01DX009 (ip), vehicle: saline with Tween-80 90 % of control | [15] 92 % of control

CCOC(CNC(=O)c1cccc(S(=O)(=O)F)c1)OCC
inactive: dose: 100.0 mg/kg/injection, schedule: Q04DX003 (ip), vehicle: saline + alcohol 98 % of control | dose: 200.0 mg/kg/injection, schedule: Q04DX003 (ip), vehicle: saline + alcohol 96 % of control

Cc1ccc([N+](=O)[O-])cc1NC(=O)Nc1cc(Cl)ccc1O
inactive: [12] 93 % of control | [13] 96 % of control | [14] 95 % of control

O=C1CSc2ccccc2N1CCN1C(=O)CSc2ccccc21
inactive: dose: 50.0 mg/kg/injection, schedule: Q04DX002 (ip), vehicle: saline with Tween-80 93 % of control | dose: 100.0 mg/kg/injection, schedule: Q04DX002 (ip), vehicle: saline with Tween-80 90 % of control | dose: 200.0 mg/kg/injection, schedule: Q04DX002 (ip), vehicle: saline with Tween-80 101 % of control | dose: 400.0 mg/kg/injection, schedule: Q04DX002 (ip), vehicle: saline with Tween-80 86 % of control

NC(N)=N/N=C/c1cccc(F)c1
inactive: dose: 15.0 mg/kg/injection, schedule: Q01DX Z (ip), vehicle: saline 111 % of control | dose: 15.0 mg/kg/injection, schedule: Q01DX Z (oral), vehicle: saline 87 % of control | dose: 30.0 mg/kg/injection, schedule: Q01DX Z (ip), vehicle: saline 90 % of control | dose: 30.0 mg/kg/injection, schedule: Q01DX Z (oral), vehicle: saline 90 % of control
